The text below walks through data of article PMC11597202, “Novel Thiazole-Fused [4,5-g] or [5,4-g]Quinazolin-8-ones and Their Quinazoline Analogues: Synthesis and Biological Evaluation” (Pharmaceuticals, 2024).

Where only a bound is given, the exact number is not on record here.

The nature of series [1]: In vitro cytotoxic assay, MDA-MB-231. Also: 0.1-25 µM tested. Type of series: cell-based. The following applies: human, MDA-MB-231 cells (breast cancer cell line); read-out: In vitro cytotoxic activity IC50, MBA-MB-231. The procedure:
(§1) Skin normal fibroblastic cells were purchased from Lonza (Basel, Switzerland). […] All culture media were supplemented by 10% of FBS, 1% of penicillin–streptomycin and 2 mM glutamine.
(§2) Chemicals were solubilized in DMSO at a concentration of 10 mM (stock solution) and diluted in culture medium to the desired final concentrations. […] Cells were plated in 96-well plates (4000 cells/well). Twenty-four hours after seeding, the cells were exposed to chemicals. […] Image acquisition and analysis were performed using a Cellomics ArrayScan VTI/HCS Reader (ThermoScientific, Les Ulis, France). The survival percentages were calculated as the percentage of cell number after compound treatment over cell number after DMSO treatment. The relative IC50 values were calculated using the curve fitting XLfit 5.5.0.5 (idbs) integrated in Microsoft Excel as an add-on.
(§3) 4.3.1. Cell culture. Skin normal fibroblastic cells are purchased from Lonza (Basel, Switzerland). Huh7- […]
(§4) from ATCC (American Type Culture Collection). […]
(§5) supplemented by 10% of FBS, 1% of penicillin-streptomycin and 2 mM glutamine.
(§6) 4.3.2. Cytotoxic assay. Chemicals were solubilized in DMSO at a concentration of 10 mM (stock solution) and diluted in culture medium to the desired final concentrations. The dose effect cytotoxic assays (IC50 determination) were performed by increasing the concentrations of each chemical (final well […]
(§7) Cells were plated in 96-well plates
(§8) (4000 cells/well). Twenty-four hours after seeding, cells were exposed to chemicals. After 48h of treatment, cells were washed in PBS and fixed in cooled 90% ethanol/5% acetic acid for 20 min and the […]
(§9) Image acquisition and analysis were performed using a Cellomics ArrayScan VTI/HCS Reader (ThermoScientific). The survival percentages were calculated as the percentage of cell number after compound treatment over cell number after DMSO treatment. The relative IC50 were calculated using the curve fitting XLfit 5.5.0.5 (idbs) integrated in Microsoft Excel as an add-on. The 4 Parameter Logistic Model or Sigmoidal Dose-Response Model describing the sigmoid-shaped response pattern was used (fit = (A+[(B-A)/(1+[(C/x)^D])]) where fit is the response and X is the tested concentration of the compound. The lower asymptote is A (also referred to as the bottom of the curve or lower plateau or the min) and the upper asymptote is B (also referred to as the top of the curve or upper plateau or the max). The slope of the linear part of the curve is described by the factor D. The parameter C is the concentration corresponding to the response midway between A and B. C is called “relative IC50” because it refers to the maximum response obtained by a […]
(§10) The results are represented as the mean ± standard error (SE) calculated from at least three independent experiments.

The nature of series [2]: In vitro cytotoxic assay, Huh7-D12. Type of series: cell-based. The note with it: human, Huh7-D12 cells (liver cancer cell line). The procedure:
as §1, §2, §3, §4, §5, §6, §7, §8, §9, §10

The nature of series [3]: In vitro cytotoxic assay, MDA-MB-468. The note with it: human, MDA-MB-468 cells (breast cancer cell line); read-out: In vitro cytotoxic activity IC50, MBA-MB4-68. The format is cell-based. The procedure: as §1, §2, §3, §4, §5, §6, §7, §8, §9, §10
A further series deals with T1, CK-1ε (Homo sapiens, UniProt P49674).
T1 construct: host or cells: Sf9 insect cells (baculovirus)
T1 sequence (P49674 whole entry): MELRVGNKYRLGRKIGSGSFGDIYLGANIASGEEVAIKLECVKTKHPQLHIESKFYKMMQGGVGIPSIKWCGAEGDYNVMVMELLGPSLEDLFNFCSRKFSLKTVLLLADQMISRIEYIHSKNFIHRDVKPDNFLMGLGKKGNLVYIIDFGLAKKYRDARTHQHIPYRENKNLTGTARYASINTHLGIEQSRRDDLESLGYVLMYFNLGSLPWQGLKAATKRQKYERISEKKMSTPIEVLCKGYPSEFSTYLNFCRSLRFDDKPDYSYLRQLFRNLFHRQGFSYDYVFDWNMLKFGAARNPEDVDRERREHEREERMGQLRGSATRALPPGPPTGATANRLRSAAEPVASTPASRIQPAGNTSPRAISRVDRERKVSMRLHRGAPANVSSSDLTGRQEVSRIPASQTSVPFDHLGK
In words: ADP-Glo kinase inhibition assay, CK-1ε. Type of series: biochemical. The following applies: percentage of maximum activity of the DMSO control, mean n = 2, 10 µM ATP, read-out: Residual activity CK-1ε; for remaining activity at 1 µM: 1 μM compound; for remaining activity at 10 µM: 10 μM compound. The procedure: Kinase enzymatic activities were assayed in 384-well plates using the ADP-Glo^TM assay kit (Promega, Madison, WI, USA) according to the recommendations of the manufacturer. This luminescent ADP detection assay was described by Zegzouti and co-workers and provides a homogeneous and high-throughput screening method to measure kinase activity by quantifying the amount of ADP produced during a kinase reaction. Briefly, the reactions were carried out in a final volume of 6 µL for 30 min at 30 °C in an appropriate kinase buffer (10 mM MgCl2, 1 mM EGTA, 1 mM DTT, 25 mM Tris-HCl pH 7.5, 50 µg/mL heparin), with peptide or protein as substrate in the presence of 10 µM ATP. Peptide substrates were obtained from ProteoGenix (Schiltigheim, France) or Sigma for Histone H1, Poly (L-glutamic acid–L-tyrosine) sodium salt, Casein and MBP. After that, 6 µL of ADP-Glo^TM Kinase Reagent was added to stop the kinase reaction. After an incubation time of 50 min at room temperature (rt), 12 µL of Kinase Detection Reagent was added for one hour at rt. The transmitted signal was measured using the Envision (PerkinElmer, Waltham, MA, USA) microplate luminometer and expressed as Relative Light Units (RLUs). Kinase activities are expressed as percentages of remaining kinase activities detected after treatment with 1 or 10 µM of the tested compounds. The maximum kinase activity was measured in the absence of inhibitor but with an equivalent dose of DMSO (solvent of the tested compounds).
3. Kinase inhibition assays
Kinase enzymatic activities were assayed in 384-well plates using the ADP-GloTM assay kit (Promega, Madison, WI) according to the recommendations of the manufacturer. This luminescent ADP detection assay was described by Zegzouti and co-workers and provides a homogeneous and high-throughput screening method to measure kinase activity by quantifying the amount of ADP produced during a kinase reaction. Briefly, the reactions were carried out in a final volume of 6 µl for 30 min at 30°C in appropriate kinase buffer (10 mM MgCl2, 1 mM EGTA, 1 mM DTT, 25 mM Tris-HCl pH 7.5, 50 µg/mL heparin), with peptide or protein as substrate in the presence of 10 µM ATP. Peptide substrates were obtained from ProteoGenix (Schiltigheim, France) or Sigma for Histone H1, Poly (L-glutamic acid – L-tyrosine) sodium salt, Casein and MBP. After that, 6 µL of ADP-GloTM Kinase Reagent was added to stop the kinase reaction. After an incubation time of 50 min at room temperature (rt), 12 µL of Kinase Detection Reagent was added for 1 h at rt. The transmitted signal was measured using the Envision (PerkinElmer, Waltham, MA) microplate luminometer and expressed in Relative Light Unit (RLU). Kinase activities are expressed in percentages of remaining kinase activities detected after treatment with 1 or 10 µM of the tested compounds. The maximal kinase activity is measured in the absence of inhibitor but with an equivalent dose of DMSO (solvent of the tested compounds).
Table. Human protein kinases tested in the panel: CDK9, HASPIN, PIM1, GSK3b, CK1ε, JAK3, CLK1 […]
1 Peptide substrates were obtained from ProteoGenix (Schiltigheim, France) or Sigma for Histone H1, Poly (L-glutamic acid – L-tyrosine) sodium salt, Casein and MBP; 2 “Sp” stands for phosphorylated serine.
Controls inhibitors: To validate each kinase assay, the following model inhibitors were used under the same conditions than the tested compounds: Staurosporine from Streptomyces sp.
In general terms: ADP-Glo first removes unused ATP, then detects ADP through luciferase.

The nature of series [4]: In vitro cytotoxic assay, Caco-2. Also: 0.1-25 µM tested. The format is cell-based. The note with it: human, Caco-2 cells (colon cancer cell line). The procedure: as §1, §2, §3, §4, §5, §6, §7, §8, §9, §10

Regarding `COC(=N)c1nc2cc3c(=O)n(Cc4ccccc4)cnc3cc2s1` [Compound 6a, Methyl 7-benzyl-8-oxo-7,8-dihydrothiazolo[4,5-g]quinazoline-2-carbimidate], the IC50 at 48 h in series [1] is 20 µM; in series [2] it was over 25 µM; in series [3] it was 19 µM; in series [4], 17 µM. Also, the remaining activity at 1 µM on CK-1ε came to 100%. Further, the remaining activity at 10 µM on CK-1ε came out at 69%.
On to `COC(=N)c1nc2cc3ncnc(Nc4ccc(OC)cc4F)c3cc2s1` [Compound 15b, Methyl 8-[(2-fluoro-4-methoxyphenyl)amino]thiazolo[5,4-g]quinazoline-2-carbimidate], for which, at CK-1ε, the remaining activity at 1 µM was determined as 98% and the remaining activity at 10 µM was determined as 108%.
On to `COC(=N)c1nc2c(ccc3c(=O)n(Cc4ccccc4)cnc32)s1` [Compound 6c, Methyl 7-benzyl-6-oxo-6,7-dihydrothiazolo[5,4-h]quinazoline-2-carbimidate], for which the IC50 at 48 h turned out to be 13 µM in series [1], 10 µM in series [2], 13 µM in series [3] and 6 µM in series [4]. In addition, the remaining activity at 1 µM on CK-1ε came out at 112%. The remaining activity at 10 µM at CK-1ε is 87%.
Consider `COC(=N)c1nc2cc3ncn(Cc4ccccc4)c(=O)c3cc2s1` [Compound 6b, Methyl 7-benzyl-8-oxo-7,8-dihydrothiazolo[5,4-g]quinazoline-2-carbimidate], for which the IC50 at 48 h in series [1] is 3 µM; in series [2] it was 1 µM; in series [3] it was 1 µM; in series [4] it was 2 µM. Also, the remaining activity at 1 µM on CK-1ε was determined as 111%. Further, the remaining activity at 10 µM at CK-1ε came out at 103%.
On to `COC(=N)c1nc2cc3c(Nc4ccc(OC)cc4F)ncnc3cc2s1` [Compound 15a, Methyl 8-[(2-fluoro-4-methoxyphenyl)amino]thiazolo[4,5-g]quinazoline-2-carbimidate], for which the IC50 at 48 h in series [1] is 9 µM. This molecule also returned an IC50 at 48 h in series [2] of 8 µM. Further, on CK-1ε, the remaining activity at 1 µM was determined as 95% and the remaining activity at 10 µM stood at 72%.
For `COC(=N)c1nc2ccc3c(=O)n(Cc4ccccc4)cnc3c2s1` [Compound 6d, Methyl 7-benzyl-6-oxo-6,7-dihydrothiazolo[4,5-h]quinazoline-2-carbimidate], the IC50 at 48 h in series [1] was 11 µM; in series [2], 9 µM; in series [3], 5 µM; in series [4], 10 µM. Also, the remaining activity at 1 µM on CK-1ε was 92%. In addition, at CK-1ε, the remaining activity at 10 µM stood at 98%.
For `COC(=N)c1nc2ccc3ncnc(Nc4ccc(OC)cc4F)c3c2s1` [Compound II, methyl 9-[(2-fluoro-4-methoxyphenyl)amino]thiazolo[5,4-f]quinazoline-2-carbimidate, reference compound], the IC50 at 48 h in series [1] worked out at 5 µM; in series [2] it was 5 µM; in series [3], 9 µM; in series [4], 3 µM.
For `COC(=N)c1nc2ccc3ncn(Cc4ccccc4)c(=O)c3c2s1` [Compound I, methyl 8-benzyl-9-oxo-8,9-dihydrothiazolo[5,4-f]quinazoline-2-carbimidate, reference compound], the IC50 at 48 h turned out to be 21 µM in series [1], 15 µM in series [2], 21 µM in series [3] and 12 µM in series [4]. The remaining activity at 1 µM on CK-1ε was found to be 92%. Besides, on CK-1ε, the remaining activity at 10 µM stood at 70%.

In general, IC50 refers to the concentration that inhibits the measured activity by half.
